Assays:
[1] = system: surgically created aneurysm; conditions: bFGF collagen gel in fiber lumen, three weeks; cited from earlier work
[2] = system: endothelial cell migration and vessel formation in Matrigel plug; assay: In vivo murine Matrigel plug assay; parameters: species or system C57BL/6 mice; conditions: 10 μL daily of 100 μg/mL VEGF or 1800 μM S1P via fiber, 7 days post-implantation
Description: In vivo Assay. Growth factor reduced Matrigel™ (500 μL) was injected into the subcutaneous space on the dorsal side of C57BL/6 mice on both the left and right sides. A 12 G needle was used to thread cellulose hollow fibers through the skin and Matrigel™ plugs. Hollow fibers were fixed in place using tissue glue and an Elizabethan collar was used to prevent mice from extracting the hollow fiber. On the day of implantation and every day for the next 6 days, hollow fibers on the left side were injected with sterile saline and hollow fibers on the right side were injected with 10 μL of 100 μg/mL VEGF or 1800 μM S1P (see Table 8 for schedule).
Seven days post-implantation, implants were extracted, fixed and analyzed for endothelial cell migration and vessel formation. […] CD31 staining of Matrigel™ plug explants confirms that cells that have migrated into the Matrigel™ plugs are in fact endothelial cells (FIGS. 21E-H). Metamorph® was used to measure the % area of each image that consisted of endothelial cell staining in order to quantify endothelial cell migration.

In the case of basic fibroblast growth factor [bFGF], the “fibrous tissue formation in aneurysm” value [1] is listed as “remained functional as it was able to guide the aneurysm to create fibrous tissue”.
In the case of “vascular endothelial growth factor [VEGF]”, the “blood filled vessels (H&E)” value [2] was “blood filled vessels”.

Reference: patent US20090136553A1, “TRIGGERABLY DISSOLVABLE HOLLOW FIBERS FOR CONTROLLED DELIVERY” (priority 2007, published 2009)
